Measured values reported in patent US20260035359A1, “HERBICIDAL IMIDAZOLE COMPOUNDS” (SYNGENTA CROP PROTECTION AG, priority 2022, published 2026).

Legend:
Format in all cases: in vivo
[1] = tested on: Setaria faberi (SETFA); assay: Post-emergence herbicidal glasshouse test; conditions: 250 g/ha, sprayed after 8 days cultivation, evaluated after 13 days
Method: (§1) Seeds of a variety of test species are sown in standard soil in pots Amaranthus pa/meri (AMAPA), Amaranthus retoflexus (AMARE), Echinochloa crus-gali (ECHCG), Ipomoea hederacea (IPOHE), Setaria faberi (SETFA). After cultivation for one day (pre-emergence) or after 8 days cultivation (post-emergence) under controlled conditions in a glasshouse (at 24/16° C., day/night; 14 hours light; 65% humidity), the plants are sprayed with an aqueous spray solution derived from the formulation of the technical active ingredient in acetone/water (50:50) solution containing 0.5% Tween 20 (polyoxyethelyene sorbitan monolaurate, CAS RN 9005-64-5). Compounds are applied at 250 g/ha unless otherwise stated. The test plants are then grown in a glasshouse under controlled conditions in a glasshouse (at 24/16° C., day/night; 14 hours light; 65% humidity) and watered twice daily. After 13 days for pre and post-emergence, the test is evaluated for the percentage damage caused to the plant. The biological activities are shown in the following table on a five-point scale (5=81-100%; 4=61-80%; 3=41-60%; 2=21-40%; 1=0-20%).

[2] = tested on: Echinochloa crus-gali (ECHCG); assay: Post-emergence herbicidal glasshouse test; conditions: 250 g/ha, sprayed after 8 days cultivation, evaluated after 13 days
Method: as §1

[3] = tested on: Ipomoea hederacea (IPOHE); assay: Post-emergence herbicidal glasshouse test; conditions: 250 g/ha, sprayed after 8 days cultivation, evaluated after 13 days
Method: as §1

[4] = tested on: Amaranthus pa/meri (AMAPA); assay: Post-emergence herbicidal glasshouse test; conditions: 250 g/ha, sprayed after 8 days cultivation, evaluated after 13 days
Method: as §1

[5] = tested on: Amaranthus retoflexus (AMARE); assay: Post-emergence herbicidal glasshouse test; conditions: 250 g/ha, sprayed after 8 days cultivation, evaluated after 13 days
Method: as §1

[6] = tested on: Setaria faberi (SETFA); assay: Pre-emergence herbicidal glasshouse test; conditions: 250 g/ha, sprayed after one day cultivation, evaluated after 13 days
Method: as §1

[7] = tested on: Echinochloa crus-gali (ECHCG); assay: Pre-emergence herbicidal glasshouse test; conditions: 250 g/ha, sprayed after one day cultivation, evaluated after 13 days
Method: as §1

[8] = tested on: Ipomoea hederacea (IPOHE); assay: Pre-emergence herbicidal glasshouse test; conditions: 250 g/ha, sprayed after one day cultivation, evaluated after 13 days
Method: as §1

[9] = tested on: Amaranthus pa/meri (AMAPA); assay: Pre-emergence herbicidal glasshouse test; conditions: 250 g/ha, sprayed after one day cultivation, evaluated after 13 days
Method: as §1

[10] = tested on: Amaranthus retoflexus (AMARE); assay: Pre-emergence herbicidal glasshouse test; conditions: 250 g/ha, sprayed after one day cultivation, evaluated after 13 days
Method: as §1

Row | Structure (SMILES) | percentage damage caused to the plant, SETFA [1] | percentage damage caused to the plant, ECHCG [2] | percentage damage caused to the plant, IPOHE [3] | percentage damage caused to the plant, AMAPA [4] | percentage damage caused to the plant, AMARE [5] | percentage damage caused to the plant, SETFA [6] | percentage damage caused to the plant, ECHCG [7] | percentage damage caused to the plant, IPOHE [8] | percentage damage caused to the plant, AMAPA [9] | percentage damage caused to the plant, AMARE [10]
1 | FC(F)(F)CCCc1nc(Cl)cn1Cc1ncc(Cl)cn1 [Compound 1.001, 5-chloro-2-[[4-chloro-2-(4,4,4-trifluorobutyl)imidazol-1-yl]methyl]pyrimidine] | 1 (1=0-20%) | 1 (1=0-20%) | 2 (2=21-40%) | 2 (2=21-40%) | 2 (2=21-40%) | 1 (1=0-20%) | 1 (1=0-20%) | 1 (1=0-20%) | 2 (2=21-40%) | 1 (1=0-20%)
2 | CCCc1nc(C(F)(F)F)cn1Cc1ncc(Cl)cn1 [Compound 1.042] |  | 1 (1=0-20%) | 3 (3=41-60%) | 3 (3=41-60%) | 3 (3=41-60%) |  | 1 (1=0-20%) | 4 (4=61-80%) | 4 (4=61-80%) | 4 (4=61-80%)
3 | FC(F)(F)c1cn(Cc2ncc(Cl)cn2)c(CCCCl)n1 [Compound 1.051, 5-chloro-2-[[2-(3-chloropropyl)-4-(trifluoromethyl)imidazol-1-yl]methyl]pyrimidine] |  | 4 (4=61-80%) | 4 (4=61-80%) | 4 (4=61-80%) | 5 (5=81-100%) |  | 2 (2=21-40%) | 5 (5=81-100%) | 5 (5=81-100%) | 5 (5=81-100%)
4 | CCCCc1nc(C(F)F)cn1Cc1ncc(Cl)cn1 [Compound 1.053, 2-[[2-butyl-4-(difluoromethyl)imidazol-1-yl]methyl]-5-chloro-pyrimidine] |  | 1 (1=0-20%) | 1 (1=0-20%) | 1 (1=0-20%) | 1 (1=0-20%) |  | 1 (1=0-20%) | 1 (1=0-20%) | 1 (1=0-20%) | 1 (1=0-20%)
5 | CCCCc1nc(C(F)(F)F)cn1Cc1ccc(Cl)cn1 [Compound 1.055] |  | 1 (1=0-20%) | 1 (1=0-20%) | 1 (1=0-20%) | 1 (1=0-20%) |  | 1 (1=0-20%) | 3 (3=41-60%) | 1 (1=0-20%) | 1 (1=0-20%)
6 | CCCCc1nc(C(F)(F)F)cn1Cc1ccc(C#N)cn1 [Compound 1.056] |  | 1 (1=0-20%) | 2 (2=21-40%) | 2 (2=21-40%) | 2 (2=21-40%) |  | 1 (1=0-20%) | 2 (2=21-40%) | 4 (4=61-80%) | 4 (4=61-80%)
7 | CCCCc1nc(C(F)(F)F)cn1Cc1ccc(Cl)cn1 [Compound 1.057] |  | 1 (1=0-20%) | 2 (2=21-40%) | 2 (2=21-40%) | 3 (3=41-60%) |  | 1 (1=0-20%) | 1 (1=0-20%) | 5 (5=81-100%) | 3 (3=41-60%)
8 | CCCCc1nc(C(F)(F)F)cn1Cc1ncc(Cl)cc1F [Compound 1.058] |  | 4 (4=61-80%) | 4 (4=61-80%) | 3 (3=41-60%) | 4 (4=61-80%) |  | 5 (5=81-100%) | 5 (5=81-100%) | 5 (5=81-100%) | 5 (5=81-100%)
9 | FC(F)(F)c1cn(Cc2ncc(Cl)cn2)c(CC2CCOC2)n1 (stereo not shown) [Compound 1.074] |  | 3 (3=41-60%) | 4 (4=61-80%) | 4 (4=61-80%) | 4 (4=61-80%) |  | 3 (3=41-60%) | 5 (5=81-100%) | 5 (5=81-100%) | 5 (5=81-100%)
10 | FC(F)(F)c1cn(Cc2ncc(Cl)cn2)c(CC2CCOCC2)n1 [Compound 1.075] |  | 4 (4=61-80%) | 4 (4=61-80%) | 4 (4=61-80%) | 4 (4=61-80%) |  | 4 (4=61-80%) | 5 (5=81-100%) | 5 (5=81-100%) | 5 (5=81-100%)
11 | CCCCc1nc(C(F)(F)F)cn1Cc1ncc(F)cn1 [Compound 1.077, 2-[[2-butyl-4-(trifluoromethyl)imidazol-1-yl]methyl]-5-fluoro-pyrimidine] |  | 1 (1=0-20%) | 3 (3=41-60%) | 2 (2=21-40%) | 3 (3=41-60%) |  | 1 (1=0-20%) | 5 (5=81-100%) | 5 (5=81-100%) | 5 (5=81-100%)
12 | CCCCc1nc(I)c(I)n1Cc1ncc(Cl)cn1 [Compound 1.078] |  | 1 (1=0-20%) | 1 (1=0-20%) | 2 (2=21-40%) | 2 (2=21-40%) |  | 1 (1=0-20%) | 1 (1=0-20%) | 1 (1=0-20%) | 1 (1=0-20%)
13 | CCCCc1nc(C(F)(F)F)cn1Cc1ccc(Cl)cn1 [Compound 1.081] |  | 1 (1=0-20%) | 2 (2=21-40%) | 3 (3=41-60%) | 3 (3=41-60%) |  | 1 (1=0-20%) | 1 (1=0-20%) | 2 (2=21-40%) | 2 (2=21-40%)
